Experimental data published in ChEMBL document CHEMBL6074668 (J Med Chem, 2024).
Calls of active or inactive are those of the source. No cut-off for these calls is given here.

Experiments:
[1] = target: Delta-type opioid receptor (Homo sapiens) (UniProt P41143); assay: Agonist activity at human delta opioid receptor expressed in CHO-K1 cells assessed as inhibition of forskolin-stimulated cAMP accumulation at <1 uM by HitHunter assay based luminescence analysis; format: functional, cell-based
[2] = target: T1, Kappa-type opioid receptor (Homo sapiens, UniProt P41145); assay: Agonist activity at human kappa opioid receptor expressed in CHO-K1 cells assessed as inhibition of forskolin-stimulated cAMP accumulation by HitHunter assay based luminescence analysis relative to control; format: functional, cell-based; settings: filed as agonist
Mu-type opioid receptor [3] = target: T2, Mu-type opioid receptor (Homo sapiens, UniProt P35372); assay: Agonist activity at human mu opioid receptor expressed in CHO-K1 cells assessed as inhibition of forskolin-stimulated cAMP accumulation by HitHunter assay based luminescence analysis relative to control; format: functional, cell-based
[4] = target: T1, Kappa-type opioid receptor; assay: Agonist activity at kappa opioid receptor (unknown origin) expressed in human U2OS cells assessed as beta arrestin2 recruitment at <10 uM incubated for 30 mins by PathHunter assay; format: functional, cell-based; settings: filed as agonist
Homo sapiens = organism: Homo sapiens; assay: Selectivity index, ratio of EC50 for agonist activity at human mu opioid receptor expressed in CHO-K1 cells to EC50 for agonist activity at human kappa opioid receptor expressed in CHO-K1 cells; format: cell-based
[5] = target: T1, Kappa-type opioid receptor; assay: Agonist activity at human kappa opioid receptor expressed in CHO-K1 cells assessed as inhibition of forskolin-stimulated cAMP accumulation by HitHunter assay based luminescence analysis; format: functional, cell-based
Mu-type opioid receptor [6] = target: T2, Mu-type opioid receptor; assay: Agonist activity at human mu opioid receptor expressed in CHO-K1 cells assessed as inhibition of forskolin-stimulated cAMP accumulation by HitHunter assay based luminescence analysis; format: functional, cell-based
[7] = Binding affinity to alpha7 […] receptor (unknown origin) by radioligand displacement assay; set-up: species or system Homo sapiens
[8] = target: T3, Alpha-1B adrenergic receptor (Homo sapiens, UniProt P35368); assay: Binding affinity to alpha1B adrenergic receptor (unknown origin) by radioligand displacement assay
T3 sequence (P35368 whole entry): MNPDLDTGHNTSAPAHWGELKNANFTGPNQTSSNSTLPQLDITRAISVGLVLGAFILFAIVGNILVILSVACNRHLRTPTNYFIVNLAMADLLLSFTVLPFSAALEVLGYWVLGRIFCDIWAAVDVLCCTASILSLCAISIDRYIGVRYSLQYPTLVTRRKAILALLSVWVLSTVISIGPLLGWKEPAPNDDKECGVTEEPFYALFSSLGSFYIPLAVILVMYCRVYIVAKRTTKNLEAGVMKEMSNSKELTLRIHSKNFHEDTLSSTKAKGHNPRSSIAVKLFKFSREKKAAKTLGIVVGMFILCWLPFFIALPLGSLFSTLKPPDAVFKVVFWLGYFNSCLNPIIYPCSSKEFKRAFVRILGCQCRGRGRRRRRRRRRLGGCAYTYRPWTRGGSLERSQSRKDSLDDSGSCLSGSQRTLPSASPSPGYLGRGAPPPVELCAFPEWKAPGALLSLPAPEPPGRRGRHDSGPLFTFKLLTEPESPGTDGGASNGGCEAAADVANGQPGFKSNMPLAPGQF

[9] = target: T4, Alpha-2B adrenergic receptor (Homo sapiens, UniProt P18089); assay: Binding affinity to alpha2B adrenergic receptor (unknown origin) by radioligand displacement assay
T4 sequence (P18089 whole entry): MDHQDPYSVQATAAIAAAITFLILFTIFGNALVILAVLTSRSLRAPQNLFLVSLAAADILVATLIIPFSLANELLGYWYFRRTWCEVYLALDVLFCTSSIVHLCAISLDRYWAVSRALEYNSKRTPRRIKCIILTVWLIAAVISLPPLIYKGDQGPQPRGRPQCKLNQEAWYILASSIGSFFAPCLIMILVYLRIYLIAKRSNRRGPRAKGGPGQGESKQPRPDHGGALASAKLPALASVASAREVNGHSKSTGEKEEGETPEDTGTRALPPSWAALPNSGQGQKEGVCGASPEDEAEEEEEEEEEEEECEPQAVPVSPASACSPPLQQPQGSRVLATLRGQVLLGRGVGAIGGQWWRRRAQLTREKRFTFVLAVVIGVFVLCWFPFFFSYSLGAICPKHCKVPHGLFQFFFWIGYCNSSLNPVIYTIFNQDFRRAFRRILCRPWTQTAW

[10] = target: T5, 5-hydroxytryptamine receptor 3A (Homo sapiens, UniProt P46098); assay: Binding affinity to 5HT3 receptor (unknown origin) by radioligand displacement assay
T5 sequence (P46098 whole entry): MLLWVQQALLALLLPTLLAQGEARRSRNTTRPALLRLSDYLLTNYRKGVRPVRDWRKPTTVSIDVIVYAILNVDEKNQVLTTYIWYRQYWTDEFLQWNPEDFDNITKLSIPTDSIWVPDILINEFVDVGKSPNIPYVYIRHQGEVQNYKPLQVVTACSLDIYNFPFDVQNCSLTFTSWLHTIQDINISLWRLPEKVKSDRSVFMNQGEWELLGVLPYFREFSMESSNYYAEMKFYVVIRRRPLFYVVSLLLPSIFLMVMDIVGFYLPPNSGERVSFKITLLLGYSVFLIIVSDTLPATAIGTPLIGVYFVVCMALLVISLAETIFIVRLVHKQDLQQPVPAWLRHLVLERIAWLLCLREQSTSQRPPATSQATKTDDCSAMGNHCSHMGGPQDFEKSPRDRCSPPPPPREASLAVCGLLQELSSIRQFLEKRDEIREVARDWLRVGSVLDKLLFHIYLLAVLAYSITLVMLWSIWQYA

[11] = Binding affinity to Sigma2 opioid receptor (unknown origin) by radioligand displacement assay; set-up: species or system Homo sapiens
[12] = target: T6, Alpha-1A adrenergic receptor (Homo sapiens, UniProt P35348); assay: Binding affinity to alpha1A adrenergic receptor (unknown origin) by radioligand displacement assay
T6 sequence (P35348 whole entry): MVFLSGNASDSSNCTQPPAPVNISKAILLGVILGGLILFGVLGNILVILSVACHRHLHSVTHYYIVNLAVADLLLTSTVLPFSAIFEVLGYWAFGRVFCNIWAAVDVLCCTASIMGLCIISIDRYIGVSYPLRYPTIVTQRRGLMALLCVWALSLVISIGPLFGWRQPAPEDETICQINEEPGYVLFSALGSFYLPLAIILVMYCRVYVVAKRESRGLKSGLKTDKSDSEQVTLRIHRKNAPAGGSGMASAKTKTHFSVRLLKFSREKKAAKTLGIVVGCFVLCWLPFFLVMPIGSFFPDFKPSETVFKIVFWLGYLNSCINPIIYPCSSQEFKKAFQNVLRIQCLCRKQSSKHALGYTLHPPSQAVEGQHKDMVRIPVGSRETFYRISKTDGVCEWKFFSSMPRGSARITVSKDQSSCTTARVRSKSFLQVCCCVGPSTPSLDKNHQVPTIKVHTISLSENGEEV

[13] = target: 5-hydroxytryptamine receptor 7 (Homo sapiens, UniProt P34969); assay: Binding affinity to 5HT7A receptor (unknown origin) by radioligand displacement assay
[14] = target: 5-hydroxytryptamine receptor 5A (Homo sapiens, UniProt P47898); assay: Binding affinity to 5HT5A receptor (unknown origin) by radioligand displacement assay
[15] = target: T7, Alpha-2A adrenergic receptor (Homo sapiens, UniProt P08913); assay: Binding affinity to alpha2A adrenergic receptor (unknown origin) by radioligand displacement assay
T7 sequence (P08913 whole entry): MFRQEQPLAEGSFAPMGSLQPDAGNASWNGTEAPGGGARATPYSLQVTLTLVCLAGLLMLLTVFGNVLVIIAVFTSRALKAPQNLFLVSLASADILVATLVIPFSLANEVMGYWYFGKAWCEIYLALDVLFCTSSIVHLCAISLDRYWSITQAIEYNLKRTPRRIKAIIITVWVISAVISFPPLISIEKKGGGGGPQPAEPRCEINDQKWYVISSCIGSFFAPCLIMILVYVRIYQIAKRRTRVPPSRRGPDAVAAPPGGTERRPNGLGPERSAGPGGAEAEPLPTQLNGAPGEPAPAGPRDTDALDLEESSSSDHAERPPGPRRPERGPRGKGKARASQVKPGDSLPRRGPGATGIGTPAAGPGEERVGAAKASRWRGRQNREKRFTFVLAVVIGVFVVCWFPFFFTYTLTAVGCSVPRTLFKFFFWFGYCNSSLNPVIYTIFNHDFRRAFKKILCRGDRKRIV

[16] = target: T8, Voltage-gated inwardly rectifying potassium channel KCNH2 (Homo sapiens, UniProt Q12809); assay: Binding affinity to hERG by radioligand displacement assay; format: toxicity
[17] = target: T9, Alpha-2C adrenergic receptor (Homo sapiens, UniProt P18825); assay: Binding affinity to alpha2C adrenergic receptor (unknown origin) by radioligand displacement assay
T9 sequence (P18825 whole entry): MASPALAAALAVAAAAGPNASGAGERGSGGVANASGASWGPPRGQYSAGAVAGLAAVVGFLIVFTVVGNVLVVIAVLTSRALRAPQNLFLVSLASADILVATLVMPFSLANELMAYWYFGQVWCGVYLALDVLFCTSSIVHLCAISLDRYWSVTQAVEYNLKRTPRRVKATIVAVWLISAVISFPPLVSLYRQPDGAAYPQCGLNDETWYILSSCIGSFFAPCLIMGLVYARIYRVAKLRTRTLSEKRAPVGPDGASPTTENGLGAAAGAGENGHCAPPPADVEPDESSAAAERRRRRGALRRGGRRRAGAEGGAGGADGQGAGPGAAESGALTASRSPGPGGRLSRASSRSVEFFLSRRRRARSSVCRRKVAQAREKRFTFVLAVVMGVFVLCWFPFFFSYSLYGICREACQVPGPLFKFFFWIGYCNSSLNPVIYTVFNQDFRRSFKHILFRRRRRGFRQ

[18] = target: T8, Voltage-gated inwardly rectifying potassium channel KCNH2; assay: Binding affinity to hERG at 10 uM by radioligand displacement assay; format: toxicity
Mu-type opioid receptor [19] = target: T2, Mu-type opioid receptor
Description: Binding affinity to mu opioid receptor (unknown origin) by radioligand displacement assay

[20] = target: T1, Kappa-type opioid receptor; assay: Agonist activity at kappa opioid receptor (unknown origin) assessed as beta arrestin2 recruitment at 3 uM by PRESTO-Tango assay; format: functional; settings: filed as agonist
[21] = target: T1, Kappa-type opioid receptor; assay: Binding affinity to kappa opioid receptor (unknown origin) by radioligand displacement assay

T1 sequence (P41145 whole entry): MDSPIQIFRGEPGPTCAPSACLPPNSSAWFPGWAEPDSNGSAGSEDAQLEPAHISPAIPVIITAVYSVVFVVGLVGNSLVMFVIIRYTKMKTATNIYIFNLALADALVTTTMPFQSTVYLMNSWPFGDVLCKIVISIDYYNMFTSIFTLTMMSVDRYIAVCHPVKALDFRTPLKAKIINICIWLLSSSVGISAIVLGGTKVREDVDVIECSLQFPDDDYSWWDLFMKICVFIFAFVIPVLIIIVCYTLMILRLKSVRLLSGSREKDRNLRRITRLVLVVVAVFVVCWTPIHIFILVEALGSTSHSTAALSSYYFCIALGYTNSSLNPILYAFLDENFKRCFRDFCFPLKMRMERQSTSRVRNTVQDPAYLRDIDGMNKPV
T2 sequence (P35372 whole entry): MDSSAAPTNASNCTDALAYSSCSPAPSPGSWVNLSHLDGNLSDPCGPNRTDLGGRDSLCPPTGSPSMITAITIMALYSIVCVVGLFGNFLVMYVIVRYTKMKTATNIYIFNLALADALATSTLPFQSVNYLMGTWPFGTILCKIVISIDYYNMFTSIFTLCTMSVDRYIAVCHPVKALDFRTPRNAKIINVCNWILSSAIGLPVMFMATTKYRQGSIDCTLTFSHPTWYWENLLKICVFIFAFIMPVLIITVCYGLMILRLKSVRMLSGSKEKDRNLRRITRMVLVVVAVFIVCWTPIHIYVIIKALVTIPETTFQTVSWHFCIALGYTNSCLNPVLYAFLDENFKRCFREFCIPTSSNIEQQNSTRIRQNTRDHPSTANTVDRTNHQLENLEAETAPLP
Sequence of 5-hydroxytryptamine receptor 7 (P34969 whole entry): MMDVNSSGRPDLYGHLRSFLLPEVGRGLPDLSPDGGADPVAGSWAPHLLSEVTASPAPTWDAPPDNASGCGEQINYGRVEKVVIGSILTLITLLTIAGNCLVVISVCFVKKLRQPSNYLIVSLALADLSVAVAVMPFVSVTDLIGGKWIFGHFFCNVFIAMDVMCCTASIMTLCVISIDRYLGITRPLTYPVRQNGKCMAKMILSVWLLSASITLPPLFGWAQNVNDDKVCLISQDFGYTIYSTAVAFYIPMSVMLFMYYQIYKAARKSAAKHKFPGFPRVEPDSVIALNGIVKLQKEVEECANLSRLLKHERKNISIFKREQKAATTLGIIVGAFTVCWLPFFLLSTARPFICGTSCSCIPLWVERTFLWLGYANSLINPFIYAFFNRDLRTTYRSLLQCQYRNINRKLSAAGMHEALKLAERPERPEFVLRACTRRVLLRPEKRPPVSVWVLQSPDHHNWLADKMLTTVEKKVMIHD
Sequence of 5-hydroxytryptamine receptor 5A (P47898 whole entry): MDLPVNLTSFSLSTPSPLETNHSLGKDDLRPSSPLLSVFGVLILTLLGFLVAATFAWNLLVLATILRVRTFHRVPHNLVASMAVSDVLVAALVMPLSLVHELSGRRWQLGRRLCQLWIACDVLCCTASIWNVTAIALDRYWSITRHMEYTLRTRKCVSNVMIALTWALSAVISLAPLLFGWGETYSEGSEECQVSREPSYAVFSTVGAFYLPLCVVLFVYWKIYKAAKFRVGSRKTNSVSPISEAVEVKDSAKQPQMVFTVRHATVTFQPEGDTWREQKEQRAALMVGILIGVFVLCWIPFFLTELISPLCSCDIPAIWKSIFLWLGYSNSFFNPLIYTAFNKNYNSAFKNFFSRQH
T8 sequence (Q12809 whole entry): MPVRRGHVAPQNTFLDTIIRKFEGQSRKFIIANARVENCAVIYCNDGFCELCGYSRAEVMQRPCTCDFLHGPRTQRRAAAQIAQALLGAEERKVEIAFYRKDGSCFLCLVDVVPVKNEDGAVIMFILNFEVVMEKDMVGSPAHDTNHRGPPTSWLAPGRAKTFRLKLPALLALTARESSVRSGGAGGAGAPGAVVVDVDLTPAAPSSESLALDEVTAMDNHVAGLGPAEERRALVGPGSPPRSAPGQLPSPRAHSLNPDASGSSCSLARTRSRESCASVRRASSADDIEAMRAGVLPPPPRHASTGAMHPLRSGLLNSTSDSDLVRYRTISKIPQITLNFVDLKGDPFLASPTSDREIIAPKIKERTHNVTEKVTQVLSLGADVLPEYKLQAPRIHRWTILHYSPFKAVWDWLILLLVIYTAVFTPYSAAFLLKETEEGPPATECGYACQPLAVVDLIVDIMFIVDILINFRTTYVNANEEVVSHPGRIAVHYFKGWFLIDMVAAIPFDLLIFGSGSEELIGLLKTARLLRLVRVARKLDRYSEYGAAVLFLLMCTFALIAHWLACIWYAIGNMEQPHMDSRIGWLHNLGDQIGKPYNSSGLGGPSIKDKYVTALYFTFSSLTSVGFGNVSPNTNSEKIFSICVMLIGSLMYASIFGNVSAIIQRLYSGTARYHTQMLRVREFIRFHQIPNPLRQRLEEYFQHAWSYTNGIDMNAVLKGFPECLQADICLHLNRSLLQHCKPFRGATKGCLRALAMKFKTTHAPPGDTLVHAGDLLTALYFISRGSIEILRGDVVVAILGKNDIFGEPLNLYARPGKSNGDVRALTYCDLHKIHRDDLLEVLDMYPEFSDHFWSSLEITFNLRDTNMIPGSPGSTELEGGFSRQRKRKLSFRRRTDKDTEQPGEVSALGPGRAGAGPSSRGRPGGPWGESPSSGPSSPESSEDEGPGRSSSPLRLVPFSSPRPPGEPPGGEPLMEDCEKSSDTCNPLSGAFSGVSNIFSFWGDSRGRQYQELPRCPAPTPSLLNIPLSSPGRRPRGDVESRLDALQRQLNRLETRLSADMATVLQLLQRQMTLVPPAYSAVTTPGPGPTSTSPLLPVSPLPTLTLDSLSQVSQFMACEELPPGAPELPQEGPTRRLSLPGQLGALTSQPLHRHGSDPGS
Sequence of Delta-type opioid receptor (Homo sapiens) (P41143 whole entry): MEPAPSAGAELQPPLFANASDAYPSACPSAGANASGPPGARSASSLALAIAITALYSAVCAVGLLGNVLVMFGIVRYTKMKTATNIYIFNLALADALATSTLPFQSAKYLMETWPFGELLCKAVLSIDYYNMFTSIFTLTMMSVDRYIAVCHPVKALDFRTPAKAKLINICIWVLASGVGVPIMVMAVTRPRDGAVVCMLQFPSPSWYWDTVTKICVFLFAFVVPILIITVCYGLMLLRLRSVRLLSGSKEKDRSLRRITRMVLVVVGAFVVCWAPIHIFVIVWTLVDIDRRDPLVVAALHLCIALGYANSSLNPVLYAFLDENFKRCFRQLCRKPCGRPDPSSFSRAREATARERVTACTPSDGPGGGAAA

| Structure (SMILES) | Activity [1] | Emax [2] | EC50 [5] | Ki [9] | Ki [10] | Ki [13] | Ki [14] | Ki [17] | other results |
| --- | --- | --- | --- | --- | --- | --- | --- | --- | --- |
| C/C=C1/CN2CC[C@]34C(=C(C(=O)OC)[C@H]1C[C@H]23)Nc1ccc(-c2ccoc2)cc14 | inactive | 102% |  |  |  |  |  |  | Emax (Mu-type opioid receptor [3]; filed as agonist): 99%; Activity [4]: Active; Less Efficacious Than U50488 |
| C/C=C1/CN2CC[C@]34C(=C(C(=O)OC)[C@H]1C[C@H]23)Nc1ccc([N+](=O)[O-])cc14 | inactive | 96% | 160 nM |  |  |  |  |  | Ratio EC50 (Homo sapiens): 25; EC50 (Mu-type opioid receptor [6]): 4000 nM; Emax (Mu-type opioid receptor [3]): < 10% |
| C/C=C1/CN2CC[C@]34C(=C(C(=O)OC)[C@H]1C[C@H]23)Nc1ccc(Br)cc14 |  |  |  | 1250 nM | 210 nM | 1520 nM | 721 nM | 2910 nM | Ki [7]: 7000 nM; Ki [8]: 2880 nM; Ki [11]: 2620 nM; Ki [12]: 1000 nM; Ki [15]: > 10000 nM; Ki [16]: 1340 nM |
| C/C=C1/CN2CC[C@]34C(=C(C(=O)OC)[C@H]1C[C@H]23)Nc1ccccc14 [AKUAMMICINE] |  | 91% | 1200 nM | 1210 nM | 5490 nM | 1410 nM | 2930 nM | 4790 nM | Activity [18]: < 50%; Ki (Mu-type opioid receptor [19]): 3730 nM; Activity [20]: Active; Ki [21]: 166 nM |
